# Test results published in US20160378912A1, “STRUCTURE-BASED MODELING AND TARGET-SELECTIVITY PREDICTION” (EPIGENETX, LLC, priority 2013, published 2016).
# Like-named read-outs stand apart in the source and are kept apart here.
# How the values were obtained:
# HDAC5 = HDAC5 (Homo sapiens, UniProt Q9UQL6); settings: against HDAC5; cited from earlier work
# HDAC2 = HDAC2 (Homo sapiens, UniProt Q92769); settings: cited from earlier work
# HDAC3 = HDAC3 (Homo sapiens, UniProt O15379); settings: cited from earlier work
# HDAC1 = HDAC1 (Homo sapiens, UniProt Q13547); settings: cited from earlier work
# HDAC6 = molecular target: T1, HDAC6 (Homo sapiens, UniProt Q9UBN7); settings: cited from earlier work; for pIC50exp: HDAC6 experimental activity assigned; for pIC50: training set composition
# T1 sequence (Q9UBN7 1-1215): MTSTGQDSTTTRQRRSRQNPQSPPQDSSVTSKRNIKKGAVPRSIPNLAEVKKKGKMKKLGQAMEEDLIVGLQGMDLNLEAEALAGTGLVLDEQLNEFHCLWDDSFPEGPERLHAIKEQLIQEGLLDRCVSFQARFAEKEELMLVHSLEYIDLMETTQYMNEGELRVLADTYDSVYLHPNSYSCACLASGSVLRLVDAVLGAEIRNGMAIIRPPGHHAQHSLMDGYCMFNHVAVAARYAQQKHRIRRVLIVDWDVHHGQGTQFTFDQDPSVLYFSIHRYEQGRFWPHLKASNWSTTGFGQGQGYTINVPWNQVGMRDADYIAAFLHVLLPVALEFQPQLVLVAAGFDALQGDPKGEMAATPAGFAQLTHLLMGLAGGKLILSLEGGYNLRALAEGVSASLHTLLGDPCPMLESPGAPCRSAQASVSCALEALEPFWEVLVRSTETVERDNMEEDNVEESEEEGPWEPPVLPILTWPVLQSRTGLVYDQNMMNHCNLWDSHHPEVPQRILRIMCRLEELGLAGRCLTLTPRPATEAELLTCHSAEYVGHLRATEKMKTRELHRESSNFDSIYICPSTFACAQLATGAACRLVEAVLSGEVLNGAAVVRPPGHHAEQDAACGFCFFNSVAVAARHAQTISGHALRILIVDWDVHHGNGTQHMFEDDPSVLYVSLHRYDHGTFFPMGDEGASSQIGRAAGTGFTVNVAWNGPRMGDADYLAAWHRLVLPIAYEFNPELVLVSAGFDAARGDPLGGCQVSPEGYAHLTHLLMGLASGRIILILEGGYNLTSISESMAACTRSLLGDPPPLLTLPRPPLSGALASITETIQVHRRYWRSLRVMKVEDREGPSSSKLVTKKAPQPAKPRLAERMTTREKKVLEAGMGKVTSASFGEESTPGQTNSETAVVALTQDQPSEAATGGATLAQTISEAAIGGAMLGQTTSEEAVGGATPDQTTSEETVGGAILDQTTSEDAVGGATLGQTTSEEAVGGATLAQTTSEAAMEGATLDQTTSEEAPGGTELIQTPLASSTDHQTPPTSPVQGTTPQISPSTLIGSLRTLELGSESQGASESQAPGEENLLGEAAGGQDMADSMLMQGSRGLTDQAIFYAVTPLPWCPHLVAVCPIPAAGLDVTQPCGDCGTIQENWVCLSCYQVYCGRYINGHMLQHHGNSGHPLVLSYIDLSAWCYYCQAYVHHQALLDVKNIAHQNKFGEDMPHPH
# HDAC8 = molecular target: T2, HDAC8 (Homo sapiens, UniProt Q9BY41); settings: cited from earlier work
# T2 sequence (Q9BY41 1-377): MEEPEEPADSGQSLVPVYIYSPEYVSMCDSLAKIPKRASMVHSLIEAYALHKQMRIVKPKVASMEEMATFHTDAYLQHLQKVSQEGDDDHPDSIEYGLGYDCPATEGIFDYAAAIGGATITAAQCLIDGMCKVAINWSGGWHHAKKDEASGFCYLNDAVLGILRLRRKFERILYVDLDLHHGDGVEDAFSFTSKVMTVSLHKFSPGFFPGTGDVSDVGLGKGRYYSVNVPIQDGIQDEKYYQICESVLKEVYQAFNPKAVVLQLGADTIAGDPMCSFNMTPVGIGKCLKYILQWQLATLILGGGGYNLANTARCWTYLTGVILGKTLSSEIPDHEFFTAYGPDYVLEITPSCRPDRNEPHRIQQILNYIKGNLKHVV
# HDAC10 = molecular target: T3, HDAC10 (Homo sapiens, UniProt Q969S8); settings: cited from earlier work
# T3 sequence (Q969S8 1-669): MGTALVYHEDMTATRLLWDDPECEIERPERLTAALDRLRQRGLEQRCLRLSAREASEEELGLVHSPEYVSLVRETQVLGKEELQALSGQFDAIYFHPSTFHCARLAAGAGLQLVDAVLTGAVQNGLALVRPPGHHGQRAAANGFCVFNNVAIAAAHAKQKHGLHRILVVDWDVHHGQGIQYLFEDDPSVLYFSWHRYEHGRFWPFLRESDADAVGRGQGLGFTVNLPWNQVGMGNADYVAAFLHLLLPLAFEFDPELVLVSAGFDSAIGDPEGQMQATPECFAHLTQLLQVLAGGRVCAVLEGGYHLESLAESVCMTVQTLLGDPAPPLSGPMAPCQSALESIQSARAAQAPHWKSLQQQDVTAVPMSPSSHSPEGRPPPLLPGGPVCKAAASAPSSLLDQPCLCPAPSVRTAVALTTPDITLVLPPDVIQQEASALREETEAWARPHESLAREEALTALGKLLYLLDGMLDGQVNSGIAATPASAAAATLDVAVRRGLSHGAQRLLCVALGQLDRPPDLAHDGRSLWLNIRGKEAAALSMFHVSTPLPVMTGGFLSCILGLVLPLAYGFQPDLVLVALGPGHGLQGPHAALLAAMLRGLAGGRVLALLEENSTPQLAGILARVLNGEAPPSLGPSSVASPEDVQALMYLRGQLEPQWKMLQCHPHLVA
# HDAC isoforms = test: HDAC inhibition profiled over several HDAC isoforms (experimental); assay type: biochemical, human; settings: range of pIC50 over the profiled HDAC isoforms
# [1] = training set, read-out: HDACs inhibitory activities IC50
# [2] = experimental value of modeled complex
# HDAC3, sequence (O15379 whole entry): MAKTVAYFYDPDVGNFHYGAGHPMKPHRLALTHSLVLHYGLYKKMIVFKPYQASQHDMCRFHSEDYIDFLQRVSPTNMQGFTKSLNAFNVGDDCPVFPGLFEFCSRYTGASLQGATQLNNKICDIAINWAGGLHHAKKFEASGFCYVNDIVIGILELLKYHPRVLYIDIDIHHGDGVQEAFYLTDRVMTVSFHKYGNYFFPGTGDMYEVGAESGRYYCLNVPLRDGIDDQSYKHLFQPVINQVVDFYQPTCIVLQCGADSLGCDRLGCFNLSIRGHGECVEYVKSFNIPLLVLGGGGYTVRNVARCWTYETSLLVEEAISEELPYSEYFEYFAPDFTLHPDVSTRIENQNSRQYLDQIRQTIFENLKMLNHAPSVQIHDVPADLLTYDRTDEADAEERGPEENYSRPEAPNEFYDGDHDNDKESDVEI
# HDAC3, sequence (Q9Y618 395-489 partner limits assumed): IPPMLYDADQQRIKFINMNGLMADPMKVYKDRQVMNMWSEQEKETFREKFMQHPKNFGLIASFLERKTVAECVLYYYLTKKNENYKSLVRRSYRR
# HDAC1, sequence (Q13547 whole entry): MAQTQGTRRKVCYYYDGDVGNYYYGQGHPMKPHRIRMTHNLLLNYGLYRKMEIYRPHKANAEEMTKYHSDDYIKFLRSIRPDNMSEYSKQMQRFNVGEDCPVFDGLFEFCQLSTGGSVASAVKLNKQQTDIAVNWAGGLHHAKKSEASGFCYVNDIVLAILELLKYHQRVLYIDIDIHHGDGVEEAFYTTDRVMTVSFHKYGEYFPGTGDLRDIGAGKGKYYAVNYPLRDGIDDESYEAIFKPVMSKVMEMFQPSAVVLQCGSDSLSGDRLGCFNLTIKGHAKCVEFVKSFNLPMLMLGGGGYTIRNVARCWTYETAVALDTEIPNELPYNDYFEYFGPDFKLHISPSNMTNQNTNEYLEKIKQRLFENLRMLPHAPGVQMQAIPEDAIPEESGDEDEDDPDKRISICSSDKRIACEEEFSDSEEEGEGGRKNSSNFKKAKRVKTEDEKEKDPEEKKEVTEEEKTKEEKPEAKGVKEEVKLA
# HDAC2, sequence (Q92769 whole entry): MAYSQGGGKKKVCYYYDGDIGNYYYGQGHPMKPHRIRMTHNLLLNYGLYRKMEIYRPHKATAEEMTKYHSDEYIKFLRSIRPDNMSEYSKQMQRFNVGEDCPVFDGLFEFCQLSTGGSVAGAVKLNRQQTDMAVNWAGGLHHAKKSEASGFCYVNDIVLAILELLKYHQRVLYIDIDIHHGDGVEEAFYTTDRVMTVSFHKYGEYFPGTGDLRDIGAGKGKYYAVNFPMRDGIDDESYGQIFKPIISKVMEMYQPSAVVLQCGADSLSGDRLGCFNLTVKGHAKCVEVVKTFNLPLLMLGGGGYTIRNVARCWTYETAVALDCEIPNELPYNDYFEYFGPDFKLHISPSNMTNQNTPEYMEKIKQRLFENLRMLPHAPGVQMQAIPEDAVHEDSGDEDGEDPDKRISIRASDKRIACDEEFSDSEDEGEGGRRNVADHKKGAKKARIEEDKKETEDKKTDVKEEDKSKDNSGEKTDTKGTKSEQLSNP
# HDAC5, sequence (Q9UQL6 whole entry): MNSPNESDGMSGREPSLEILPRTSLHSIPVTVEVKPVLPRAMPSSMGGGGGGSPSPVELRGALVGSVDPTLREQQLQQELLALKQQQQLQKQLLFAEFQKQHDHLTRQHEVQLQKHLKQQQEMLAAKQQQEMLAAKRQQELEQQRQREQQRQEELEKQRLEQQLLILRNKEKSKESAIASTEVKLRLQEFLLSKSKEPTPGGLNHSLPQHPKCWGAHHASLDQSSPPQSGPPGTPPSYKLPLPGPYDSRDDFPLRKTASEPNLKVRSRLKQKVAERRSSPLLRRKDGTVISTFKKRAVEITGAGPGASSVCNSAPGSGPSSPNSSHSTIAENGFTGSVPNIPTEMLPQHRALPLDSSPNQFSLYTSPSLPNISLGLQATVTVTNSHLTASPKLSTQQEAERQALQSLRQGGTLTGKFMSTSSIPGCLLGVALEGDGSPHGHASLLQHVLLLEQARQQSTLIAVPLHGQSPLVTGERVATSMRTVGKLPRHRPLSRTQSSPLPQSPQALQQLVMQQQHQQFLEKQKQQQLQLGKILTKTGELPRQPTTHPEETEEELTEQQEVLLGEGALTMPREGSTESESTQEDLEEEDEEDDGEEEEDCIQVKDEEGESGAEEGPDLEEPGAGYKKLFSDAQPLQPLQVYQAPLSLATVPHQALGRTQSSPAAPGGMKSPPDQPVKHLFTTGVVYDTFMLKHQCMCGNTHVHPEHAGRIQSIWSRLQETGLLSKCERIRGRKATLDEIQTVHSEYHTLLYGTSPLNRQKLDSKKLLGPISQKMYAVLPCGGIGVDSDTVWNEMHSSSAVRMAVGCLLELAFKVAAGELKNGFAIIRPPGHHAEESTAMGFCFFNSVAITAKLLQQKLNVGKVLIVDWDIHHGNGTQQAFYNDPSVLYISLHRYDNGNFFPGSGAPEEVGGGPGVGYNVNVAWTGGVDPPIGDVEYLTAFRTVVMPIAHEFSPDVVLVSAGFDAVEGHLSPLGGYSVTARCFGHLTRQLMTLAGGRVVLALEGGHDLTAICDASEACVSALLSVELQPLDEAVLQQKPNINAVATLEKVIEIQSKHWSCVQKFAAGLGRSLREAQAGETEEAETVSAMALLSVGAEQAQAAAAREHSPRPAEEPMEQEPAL
smiles,measurement,setting,value
"CCCC(=O)O [NABUT, Butyrate]",pIC50 (lower end of training set activity range),HDAC5,2.7
same,pIC50,HDAC2; training set composition,4.54
same,IC50,HDAC2; [1],28.9 µM
same,pIC50exp,HDAC3; [2],4.648
same,pIC50,HDAC3; training set composition,4.65
same,IC50,HDAC3; [1],22.5 µM
same,pIC50exp,HDAC1; [2],3.496
same,pIC50,HDAC1; training set composition,3.50
same,IC50,HDAC1; [1],319 µM
same,pIC50exp,HDAC6; HDAC6-1 (histone catalytic domain),3
same,pIC50,HDAC6; HDAC6-1,3.00
same,pIC50exp,HDAC6; HDAC6-2 (tubulin catalytic domain),3
same,pIC50,HDAC6; HDAC6-2,3.00
same,IC50,"HDAC6; HDAC6, training set, read-out: HDACs inhibitory activities IC50",1000 µM
same,pIC50,HDAC8; training set composition,4.07
same,IC50,HDAC8; [1],85.6 µM
same,pIC50exp,HDAC10; [2],3.535
same,pIC50,HDAC10; training set composition,3.54
same,IC50,HDAC10; [1],292 µM
same,Bioactivity range (ΔpIC50) DpIC50,HDAC isoforms,1.95
